Measured values reported in patent publication US10894885B2, “Crosslinkable composition and method for producing a coated article” (HWK KRONBICHLER GMBH, priority 2016, dated 2021).

Test: Surface tension at a suspended drop (Drop Shape Analyser DSA 25)
Format: physicochemical
Conditions: 23.5-25.0° C., ten measurements
Protocol: The surface tension was determined at a suspended drop using a “Drop Shape Analyser DSA 25” of the Krüss corporation. The measurements were performed at temperatures between 23.5 and 25.0° C. and at a relative humidity of approximately 15-30%. The sample was measured a total of ten times. The standard deviation is marked by s in Table 4 shown below.

OFS (surface tension) (c 0.5 w/w % in water): 21.94 mN/m
OFS (surface tension) (c 1 w/w % in water): 20.58 mN/m
SMILES: C=Cn1cc[n+](CCC(F)(F)C(F)(F)C(F)(F)C(F)(F)C(F)(F)C(F)(F)F)c1.[Cl-] [3-(1H,1H,2H,2H-perfluorooctyl)-1-vinyl-1H-imidazoliumchloride]
